Literature values as cited in paper PMC4741275 (Analytical Chemistry, 2016).

Test system: lysosomes

Question: Which enrichment in lysosomes does the source give for `Cc1ccc(NC(=O)c2ccc(CN3CCN(C)CC3)cc2)cc1Nc1nccc(-c2cccnc2)n1` [imatinib] here?
Answer: over 1000 fold

Question: For `Cc1cn(-c2cc(NC(=O)c3ccc(C)c(Nc4nccc(-c5cccnc5)n4)c3)cc(C(F)(F)F)c2)cn1` [nilotinib], which enrichment in lysosomes is on record?
Answer: over 1000 fold
